Assay results from the supplement of paper PMC10307832.

Columns and labels:
Assay in all cases: relative viability (nuclei count vs DMSO), 5 days (fraction); higher = more cells survive
NCI-H1793 = test system: NCI-H1793
Method in brief: (§1)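 Dosing by pin tool came one day after lung cancer cell lines were seeded in 1536-well plates, using either one drug or a fixed anchor-drug dose plus five library-drug doses (not always all listed) in √10 steps. After 5 days, nuclei were counted on 4× images. Relative viability is treated-well nuclei count divided by vehicle-well nuclei count, and values are medians of duplicate plates.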

NCI-H1734 = test system: NCI-H1734
Method in brief: as §1

RERF-LC-KJ = test system: RERF-LC-KJ
Method in brief: as §1

NCI-H3122 = test system: NCI-H3122
Method in brief: as §1

LOU-NH91 = test system: LOU-NH91
Method in brief: as §1

UMC-11 = test system: UMC-11
Method in brief: as §1

NCI-H460 = test system: NCI-H460
Method in brief: as §1

NCI-H1395 = test system: NCI-H1395
Method in brief: as §1

NCI-H1755 = test system: NCI-H1755
Method in brief: as §1

NCI-H2170 = test system: NCI-H2170
Method in brief: as §1

NCI-H2228 = test system: NCI-H2228
Method in brief: as §1

NCI-H1651 = test system: NCI-H1651
Method in brief: as §1

COc1cc(N2CCC(C(N)=O)CC2)ccc1Nc1nc(N)c(Cl)c(Nc2ccccc2S(=O)(=O)C(C)C)n1 [HG-5-88-01] + O=C(CCCCCCC(=O)Nc1ccccc1)NO [Vorinostat] (partner 1 µM)
relative viability (NCI-H1793; first compound 0.04 µM): 0.648
relative viability (NCI-H1793; first compound 0.1265 µM): 0.95
relative viability (NCI-H1793; first compound 0.4 µM): 0.725
relative viability (NCI-H1793; first compound 1.265 µM): 0.575
relative viability (NCI-H1793; first compound 4 µM): 0.53
relative viability (NCI-H1734; first compound 0.04 µM): 0.969
relative viability (NCI-H1734; first compound 0.1265 µM): 0.871
relative viability (NCI-H1734; first compound 0.4 µM): 0.833
relative viability (NCI-H1734; first compound 1.265 µM): 0.773
relative viability (NCI-H1734; first compound 4 µM): 0.795
relative viability (RERF-LC-KJ; first compound 0.04 µM): 0.73
relative viability (RERF-LC-KJ; first compound 0.1265 µM): 0.703
relative viability (RERF-LC-KJ; first compound 0.4 µM): 0.624
relative viability (RERF-LC-KJ; first compound 1.265 µM): 0.691
relative viability (RERF-LC-KJ; first compound 4 µM): 0.405
relative viability (NCI-H3122; first compound 0.04 µM): 0.731
relative viability (NCI-H3122; first compound 0.1265 µM): 0.438
relative viability (NCI-H3122; first compound 0.4 µM): 0.195
relative viability (NCI-H3122; first compound 1.265 µM): 0.218
relative viability (NCI-H3122; first compound 4 µM): 0.158
relative viability (LOU-NH91; first compound 0.04 µM): 0.869
relative viability (LOU-NH91; first compound 0.1265 µM): 0.823
relative viability (LOU-NH91; first compound 0.4 µM): 0.723
relative viability (LOU-NH91; first compound 1.265 µM): 0.508
relative viability (LOU-NH91; first compound 4 µM): 0.469
relative viability (UMC-11; first compound 0.04 µM): 0.437
relative viability (UMC-11; first compound 0.1265 µM): 0.442
relative viability (UMC-11; first compound 0.4 µM): 0.354
relative viability (UMC-11; first compound 1.265 µM): 0.33
relative viability (UMC-11; first compound 4 µM): 0.288
relative viability (NCI-H460; first compound 0.04 µM): 0.72
relative viability (NCI-H460; first compound 0.1265 µM): 0.737
relative viability (NCI-H460; first compound 0.4 µM): 0.678
relative viability (NCI-H460; first compound 1.265 µM): 0.783
relative viability (NCI-H460; first compound 4 µM): 0.595
relative viability (NCI-H1395; first compound 0.04 µM): 0.69
relative viability (NCI-H1395; first compound 0.1265 µM): 0.681
relative viability (NCI-H1395; first compound 0.4 µM): 0.733
relative viability (NCI-H1395; first compound 1.265 µM): 0.832
relative viability (NCI-H1395; first compound 4 µM): 0.597
relative viability (NCI-H1755; first compound 0.04 µM): 0.79
relative viability (NCI-H1755; first compound 0.1265 µM): 0.804
relative viability (NCI-H1755; first compound 0.4 µM): 0.715
relative viability (NCI-H1755; first compound 1.265 µM): 0.748
relative viability (NCI-H1755; first compound 4 µM): 0.744
relative viability (NCI-H2170; first compound 0.04 µM): 0.837
relative viability (NCI-H2170; first compound 0.1265 µM): 0.9
relative viability (NCI-H2170; first compound 0.4 µM): 0.773
relative viability (NCI-H2170; first compound 1.265 µM): 0.594
relative viability (NCI-H2170; first compound 4 µM): 0.892
relative viability (NCI-H2228; first compound 0.04 µM): 0.731
relative viability (NCI-H2228; first compound 0.1265 µM): 0.421
relative viability (NCI-H2228; first compound 0.4 µM): 0.3
relative viability (NCI-H2228; first compound 1.265 µM): 0.348
relative viability (NCI-H2228; first compound 4 µM): 0.379
relative viability (NCI-H1651; first compound 0.04 µM): 0.509
relative viability (NCI-H1651; first compound 0.1265 µM): 0.57
relative viability (NCI-H1651; first compound 0.4 µM): 0.572
relative viability (NCI-H1651; first compound 1.265 µM): 0.552
relative viability (NCI-H1651; first compound 4 µM): 0.528
